The record followed here is PMC9931918, “Conjugation to a cell-penetrating peptide drives the tumour accumulation of the GLP1R antagonist exendin(9-39)” (European Journal of Nuclear Medicine and Molecular Imaging, 2022).

One data set is described as follows: in vivo. On the set-up: species or system BALB/c nude mice. The note with it: BALB/c nude, mouse, iv, 20 pmol/mouse, total radioactivity. On the procedure:
Mice were injected subcutaneously on the right flank with 0.2 mL of a cell suspension containing 15,000,000 INS-1 cells/mL in RPMI (3,000,000 cells/mouse). When the tumours were 2–5 mm in diameter, mice were randomly divided into groups and the experiment was performed. All mice were intravenously injected with 20 pmol/mouse (0.37 MBq/mouse) of the corresponding radiolabelled exendin variant in approximately 200 μL PBS/0.5% BSA. 12 mice received [^111In]In-DTPA-exendin-4 (referred to as exendin-4), 12 mice received [^111In]In-DTPA-exendin-4-Pen (referred to as exendin-4-Pen), 11 mice received [^111In]In-DTPA-exendin(9-39) (referred to as exendin(9-39) and 11 mice received [^111In]In-DTPA-exendin(9-39)-Pen (referred to as exendin(9-39)-Pen). To determine non-specific uptake, an excess of unlabelled peptide was injected (blocking group). A 100-fold excess of unlabelled DTPA-exendin-4 or DTPA-exendin(9-39) was co-injected (5 or 6 mice per group). Blocking groups were only included at the 4 h timepoint, to reduce the number of mice used as a control. After 1 h and 4 h after injection, mice were euthanized by CO2/O2 asphyxiation. Blood, tumours and relevant tissues (muscle, heart, lung, spleen, pancreas, kidney, liver, stomach, duodenum and colon) of all animals were dissected, weighed and measured in a gamma-counter (2480 Wizard 3”, LKB/Wallace, Perkin-Elmer, Waltham, MA, USA). The percentage injected dose per gram tissue (% ID/g) was determined for each tissue, based on the cpm measured for diluted injection mixtures (standards). For the statistical analysis, the data were log transformed to correct for differences in the intra-group spread and ensure a normal distribution. The difference in tumour uptake between the four compounds was evaluated separately for each timepoint, with a one-way ANOVA and Tukey’s post hoc test. We accepted a type I alpha error of 0.05. The number of animals per group was selected assuming an SD of 10% of the mean, to reach a statistical power of 80% (beta type error = 0.2).

A further data set has as its system CHL-GLP1R cells. Description: Binding and internalisation assay of 111In-labelled exendin variants on GLP1R-positive cells. It is filed as cell-based, Chinese hamster.

As for `CC[C@H](C)[C@H](NC(=O)[C@H](Cc1ccccc1)NC(=O)[C@H](CC(C)C)NC(=O)[C@H](CCCNC(=N)N)NC(=O)[C@@H](NC(=O)[C@H](C)NC(=O)[C@H](CCC(=O)O)NC(=O)[C@H](CCC(=O)O)NC(=O)[C@H](CCC(=O)O)NC(=O)[C@H](CCSC)NC(=O)[C@H](CCC(N)=O)NC(=O)[C@H](CCCCN)NC(=O)[C@H](CO)NC(=O)[C@H](CC(C)C)NC(=O)[C@@H](N)CC(=O)O)C(C)C)C(=O)N[C@@H](CCC(=O)O)C(=O)N[C@@H](Cc1c[nH]c2ccccc12)C(=O)N[C@@H](CC(C)C)C(=O)N[C@@H](CCCCN)C(=O)N[C@@H](CC(N)=O)C(=O)NCC(=O)NCC(=O)N1CCC[C@H]1C(=O)N[C@@H](CO)C(=O)N[C@@H](CO)C(=O)NCC(=O)N[C@@H](C)C(=O)N1CCC[C@H]1C(=O)N1CCC[C@H]1C(=O)N1CCC[C@H]1C(=O)N[C@@H](CO)C(=O)N[C@@H](CCCNC(=N)N)C(=O)N[C@@H](CCC(N)=O)C(=O)N[C@H](C(=O)N[C@@H](CCCCN)C(=O)N[C@H](C(=O)N[C@@H](Cc1c[nH]c2ccccc12)C(=O)N[C@@H](Cc1ccccc1)C(=O)N[C@@H](CCC(N)=O)C(=O)N[C@@H](CC(N)=O)C(=O)N[C@@H](CCCNC(=N)N)C(=O)N[C@@H](CCCNC(=N)N)C(=O)N[C@@H](CCSC)C(=O)N[C@@H](CCCCN)C(=O)N[C@@H](Cc1c[nH]c2ccccc12)C(=O)N[C@@H](CCCCN)C(=O)N[C@@H](CCCCNC(=O)CN(CCN(CCN(CC(=O)O)CC(=O)O)CC(=O)O)CC(=O)O)C(N)=O)[C@@H](C)CC)[C@@H](C)CC` [[111In]In-exendin(9-39)-Pen, metal not drawn], in the data set “in vivo” (pancreatic uptake), the tissue uptake (as a rule, the share of the injected amount in each gram of the tissue) at 1 h was 2.2 ± 0.3 %ID/g and the tissue uptake at 4 h was determined as 1.2 ± 0.2 %ID/g. In addition, in “in vivo” (tumour accumulation), the tissue uptake at 1 h worked out at 8.6 ± 2.2 %ID/g and the tissue uptake at 4 h amounted to 6.6 ± 1.2 %ID/g. In addition, the “binding to CHL-GLP1R cells compared with the unconjugated peptide” value in the data set on CHL-GLP1R cells (30 minutes and 4 hours incubation at 37 °C, approx. 50 pM, acid-releasable fraction) is “increased binding”. Also, the “internalisation (percentage of the total activity added)” value with CHL-GLP1R cells (CHL-GLP1R cells, 4 hours incubation at 37 °C, approx. 50 pM 111In-labelled peptide in RPMI-1640 with 0.5% BSA, acid wash then NaOH lysis, γ-counter, mean ± SD of three wells) worked out at 17.7 ± 0.5%.
